Tests used:
Assay in all cases: relative viability (nuclei count vs DMSO), 5 days (fraction); higher = more cells survive
[1] = system: NCI-H1563
Procedure, shortened: (§1)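 Relative viability is defined as nuclei in treated wells over nuclei in vehicle wells. Duplicate plates were run and medians reported. Lung cancer cell lines in 1536-well plates were dosed by pin tool one day after seeding, with one drug or with a fixed anchor-drug dose plus five library-drug doses (not always all listed) in √10 steps, and nuclei were counted after 5 days.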

[2] = system: NCI-H1915
Procedure, shortened: as §1

[3] = system: NCI-H647
Procedure, shortened: as §1

[4] = system: LK-2
Procedure, shortened: as §1

[5] = system: EMC-BAC-2
Procedure, shortened: as §1

[6] = system: HCC-78
Procedure, shortened: as §1

[7] = system: HCC-15
Procedure, shortened: as §1

[8] = system: BEN
Procedure, shortened: as §1

[9] = system: SK-MES-1
Procedure, shortened: as §1

[10] = system: EKVX
Procedure, shortened: as §1

[11] = system: 201T
Procedure, shortened: as §1

[12] = system: NCI-H2405
Procedure, shortened: as §1

[13] = system: COR-L 105
Procedure, shortened: as §1

[14] = system: COR-L23
Procedure, shortened: as §1

[15] = system: NCI-H1734
Procedure, shortened: as §1

[16] = system: NCI-H1993
Procedure, shortened: as §1

[17] = system: A-427
Procedure, shortened: as §1

[18] = system: HOP-62
Procedure, shortened: as §1

[19] = system: PC-14
Procedure, shortened: as §1

[20] = system: NCI-H460
Procedure, shortened: as §1

[21] = system: HCC-366
Procedure, shortened: as §1

[22] = system: NCI-H522
Procedure, shortened: as §1

[23] = system: NCI-H661
Procedure, shortened: as §1

`Cc1csc(=NC2CCCCC2)n1/N=C/c1ccc(O)c(O)c1O` [MIM1] + Cc1nc(Nc2ncc(C(=O)Nc3c(C)cccc3Cl)s2)cc(N2CCN(CCO)CC2)n1 [Dasatinib] (partner 0.075 µM) was tested, and the relative viability ([1]; first compound 0.2 µM) was 0.538, the relative viability ([1]; first compound 0.6325 µM) was 0.508 and the relative viability ([1]; first compound 2 µM) was 0.43. It also gave a relative viability ([1]; first compound 6.325 µM) of 0.524, a relative viability ([1]; first compound 20 µM) of 0.488 and a relative viability ([2]; first compound 0.2 µM) of 0.354. For the same molecule, the relative viability ([2]; first compound 0.6325 µM) was 0.293, the relative viability ([2]; first compound 2 µM) was 0.325 and the relative viability ([2]; first compound 6.325 µM) was 0.269. It also gave a relative viability ([2]; first compound 20 µM) of 0.187, a relative viability ([3]; first compound 0.2 µM) of 0.232 and a relative viability ([3]; first compound 0.6325 µM) of 0.225. For the same molecule, the relative viability ([3]; first compound 6.325 µM) was 0.145, the relative viability ([3]; first compound 20 µM) was 0.0584 and the relative viability ([4]; first compound 0.2 µM) was 0.358. It also gave a relative viability ([4]; first compound 2 µM) of 0.202, a relative viability ([4]; first compound 6.325 µM) of 0.269 and a relative viability ([4]; first compound 20 µM) of 0.176. The relative viability ([5]; first compound 0.2 µM) was 0.218, the relative viability ([5]; first compound 0.6325 µM) was 0.302 and the relative viability ([5]; first compound 2 µM) was 0.317. For the same molecule, the relative viability ([5]; first compound 6.325 µM) was 0.31, the relative viability ([5]; first compound 20 µM) was 0.179 and the relative viability ([6]; first compound 0.2 µM) was 0.467. It also gave a relative viability ([6]; first compound 0.6325 µM) of 0.287, a relative viability ([6]; first compound 2 µM) of 0.435 and a relative viability ([6]; first compound 6.325 µM) of 0.344. For the same molecule, the relative viability ([6]; first compound 20 µM) was 0.487, the relative viability ([7]; first compound 0.2 µM) was 0.635 and the relative viability ([7]; first compound 2 µM) was 0.57. It also gave a relative viability ([7]; first compound 6.325 µM) of 0.359, a relative viability ([7]; first compound 20 µM) of 0.101 and a relative viability ([8]; first compound 0.2 µM) of 0.304. The relative viability ([8]; first compound 0.6325 µM) was 0.308, the relative viability ([8]; first compound 2 µM) was 0.348 and the relative viability ([8]; first compound 6.325 µM) was 0.378. The relative viability ([8]; first compound 20 µM) was 0.158, the relative viability ([9]; first compound 0.2 µM) was 0.369 and the relative viability ([9]; first compound 0.6325 µM) was 0.371. The relative viability ([9]; first compound 2 µM) was 0.259, the relative viability ([9]; first compound 6.325 µM) was 0.27 and the relative viability ([9]; first compound 20 µM) was 0.367. For the same molecule, the relative viability ([10]; first compound 0.2 µM) was 0.591, the relative viability ([10]; first compound 2 µM) was 0.558 and the relative viability ([10]; first compound 6.325 µM) was 0.514. It also gave a relative viability ([10]; first compound 20 µM) of 0.391, a relative viability ([11]; first compound 0.2 µM) of 0.612 and a relative viability ([11]; first compound 0.6325 µM) of 0.614. It also gave a relative viability ([11]; first compound 2 µM) of 0.598, a relative viability ([11]; first compound 6.325 µM) of 0.422 and a relative viability ([11]; first compound 20 µM) of 0.445. It also gave a relative viability ([12]; first compound 0.2 µM) of 0.21, a relative viability ([12]; first compound 0.6325 µM) of 0.225 and a relative viability ([12]; first compound 2 µM) of 0.209. It also gave a relative viability ([12]; first compound 6.325 µM) of 0.205, a relative viability ([12]; first compound 20 µM) of 0.48 and a relative viability ([13]; first compound 0.2 µM) of 0.356. It also gave a relative viability ([13]; first compound 0.6325 µM) of 0.424, a relative viability ([13]; first compound 2 µM) of 0.339 and a relative viability ([13]; first compound 6.325 µM) of 0.29. It also gave a relative viability ([13]; first compound 20 µM) of 0.292, a relative viability ([14]; first compound 0.2 µM) of 0.449 and a relative viability ([14]; first compound 0.6325 µM) of 0.552. It also gave a relative viability ([14]; first compound 2 µM) of 0.464, a relative viability ([14]; first compound 6.325 µM) of 0.327 and a relative viability ([14]; first compound 20 µM) of 0.335. For the same molecule, the relative viability ([15]; first compound 0.2 µM) was 0.453, the relative viability ([15]; first compound 0.6325 µM) was 0.446 and the relative viability ([15]; first compound 2 µM) was 0.487. The relative viability ([15]; first compound 6.325 µM) was 0.386, the relative viability ([15]; first compound 20 µM) was 0.161 and the relative viability ([16]; first compound 0.2 µM) was 0.349. For the same molecule, the relative viability ([16]; first compound 0.6325 µM) was 0.57, the relative viability ([16]; first compound 2 µM) was 0.545 and the relative viability ([16]; first compound 6.325 µM) was 0.484. It also gave a relative viability ([16]; first compound 20 µM) of 0.411, a relative viability ([17]; first compound 0.2 µM) of 0.664 and a relative viability ([17]; first compound 2 µM) of 0.716. It also gave a relative viability ([17]; first compound 6.325 µM) of 0.573, a relative viability ([17]; first compound 20 µM) of 0.178 and a relative viability ([18]; first compound 0.2 µM) of 0.579. For the same molecule, the relative viability ([18]; first compound 0.6325 µM) was 0.696, the relative viability ([18]; first compound 2 µM) was 0.677 and the relative viability ([18]; first compound 6.325 µM) was 0.629. For the same molecule, the relative viability ([18]; first compound 20 µM) was 0.16, the relative viability ([19]; first compound 0.2 µM) was 0.301 and the relative viability ([19]; first compound 0.6325 µM) was 0.27. The relative viability ([19]; first compound 2 µM) was 0.171, the relative viability ([19]; first compound 6.325 µM) was 0.233 and the relative viability ([19]; first compound 20 µM) was 0.0786. For the same molecule, the relative viability ([20]; first compound 0.2 µM) was 0.508, the relative viability ([20]; first compound 0.6325 µM) was 0.42 and the relative viability ([20]; first compound 2 µM) was 0.467. It also gave a relative viability ([20]; first compound 6.325 µM) of 0.327, a relative viability ([20]; first compound 20 µM) of 0.044 and a relative viability ([21]; first compound 0.2 µM) of 0.622. The relative viability ([21]; first compound 2 µM) was 0.65, the relative viability ([21]; first compound 6.325 µM) was 0.388 and the relative viability ([21]; first compound 20 µM) was 0.0615. For the same molecule, the relative viability ([22]; first compound 0.2 µM) was 0.788, the relative viability ([22]; first compound 0.6325 µM) was 0.698 and the relative viability ([22]; first compound 2 µM) was 0.93. For the same molecule, the relative viability ([22]; first compound 6.325 µM) was 0.743, the relative viability ([22]; first compound 20 µM) was 0.585 and the relative viability ([23]; first compound 0.2 µM) was 0.997. It also gave a relative viability ([23]; first compound 0.6325 µM) of 0.866, a relative viability ([23]; first compound 2 µM) of 0.87 and a relative viability ([23]; first compound 6.325 µM) of 0.406. For the same molecule, the relative viability ([23]; first compound 20 µM) was 0.224.
